Assay results published in patent US4581231A (priority 1983, dated 1986).
Read-outs that look alike come from different tables or passages of the source.

Key:
[1] = system: Hepatitis B virus; details: in vivo
[2] = system: coliphage .phi.×174
[3] = system: Avian influenza virus; details: for Percent Inactivation: Influenza, dry state 20 min, Factor VIII
[4] = system: Vaccinia Virus; details: 10% (v/v) chloroform
[5] = system: Hepatitis B virus; set-up: species or system rhesus monkeys; details: rhesus monkey, in vivo
[6] = system: Polio Virus Type 1; details: 10% (v/v) chloroform
[7] = system: non-A, non-B hepatitis virus (H strain)
[8] = system: Avian influenza virus; details: 10% (v/v) chloroform
[9] = system: Vaccinia virus
[10] = system: Fibronectin; details: Factorate
Description: (§1) Lyophilized Factor VIII (Factorate--Armour) was extracted with chloroform using three different procedures.
(§2) A. 1 gram of Factorate (dry powder) was mixed at 4° C. for 20 minutes with 20 ml of cold chloroform. The chloroform was then removed by filtration and the dry powder was washed on the filter with an additional 10 ml of cold chloroform.
(§3) B. 1 gram of Factorate (dry powder) was mixed with 10 ml of cold chloroform at 4° C. for 10 minutes. The chloroform was removed by filtration and the powder was washed on the filter with 5 ml of cold chloroform. This process was then repeated a second time.
(§4) C. 1 gram of Factorate (dry powder) was mixed with 20 ml of chloroform at room temperature for 20 minutes. The chloroform was removed by filtration and the dry powder was washed on the filter with 10 ml of chloroform at room temperature.

[11] = system: Fibrinogen; details: Factorate
Description: as §1, §2, §3, §4

[12] = system: Factor VIII:c; details: Factorate
Description: as §1, §2, §3, §4

[13] = system: Vaccinia virus; details: for inactivation of vaccinia virus: dry product 20 minutes, Factor 8; for Percent Inactivation: Vaccinia, dry state 20 min, Factor VIII
[14] = preliminary, uncontrolled, 10^-2 dilution of H plasma, 5% v/v chloroform

ClC(Cl)Cl [Chloroform, chloroform]
anti-HBs / anti-HBc response [1]: did develop anti-HBs but not anti-HBc | biochemical evidence of hepatitis (weekly ALT levels) [1]: none of these animals developed biochemical evidence of hepatitis | Virus Titer Log10 ID50 /0.1 ml after CHCl3 extraction [2]: 9.0 Log10 ID50 /0.1 ml | reaction of control virus to chloroform treatment [2]: essentially unaffected | Percent Inactivation ([3]; 4° C.): 99.8% | Percent Inactivation ([3]; 20° C.): 90% | completeness of inactivation of avian influenza virus ([3]; dry product 20 minutes, Factor 8): inactivation was not complete | inactivation of avian influenza virus ([3]; dry product 20 minutes, Factor 8, similar conditions of treatment): 90-99.8% | Virus Titer Log10 ID50 /0.1 ml after CHCl3 extraction ([4]; Vaccinia virus in Fetal Calf Serum, 1:100, 10 min, room temperature): ≤ 0.5 Log10 ID50 /0.1 ml | reaction of control virus to chloroform treatment ([4]; Vaccinia virus): totally inactivated | inactivation of the virus [5]: inactivated | Virus Titer Log10 ID50 /0.1 ml after CHCl3 extraction ([6]; Polio virus type 1 in Fetal Calf Serum, 1:100, 10 min, room temperature): 6.5 Log10 ID50 /0.1 ml | reaction of control virus to chloroform treatment ([6]; poliovirus): essentially unaffected | inactivation of 10^4 chimpanzee infectious doses ([7]; 10^4 chimpanzee infectious doses of the H strain of NANB): inactivated | evidence of hepatitis ([7]; chimpanzee 947, following either chloroform-treated or sham-treated H plasma): no evidence of hepatitis | biochemical evidence of hepatitis (weekly ALT levels) ([7]; chimpanzees 889 and 947, chloroform-treated H plasma, 10% (v/v) chloroform): none of these animals developed biochemical evidence of hepatitis | incubation period [7, 14]: 9.5 weeks | infectivity after chloroform treatment [7, 14]: still infectious | virus titer (indicated by incubation period) [7, 14]: reduced | reaction of control virus to chloroform treatment [8]: totally inactivated | inactivation of vaccinia virus ([9]; after 20 minutes, dry state, room temperature (20° C.)): 90% | inactivation of vaccinia virus ([9]; after 2 hours, dry state, room temperature (20° C.)): 98% | inactivation of vaccinia virus ([9]; after 4 hours or more, dry state, room temperature (20° C.)): completely inactivated | inactivation of vaccinia virus ([9]; regardless whether in the liquid or dry state, longer time required when dry): completely inactivated | Fibronectin ([10]; 4° C. 1 × Extracted (control 1.11 mg)): 1.19 mg/mL | Fibronectin ([10]; 4° C. 2 × Extracted (control 1.11 mg)): 1.29 mg/mL | Fibronectin ([10]; Room Temp. Extraction (control 1.11 mg)): 1.14 mg/mL | Fibrinogen ([11]; 4° C. 1 × Extracted (control 8.9 mg)): 9.3 mg/mL | Fibrinogen ([11]; 4° C. 2 × Extracted (control 8.9 mg)): 8.6 mg/mL | Fibrinogen ([11]; Room Temp. Extraction (control 8.9 mg)): 9.3 mg/mL | Factor VIII Units/ml ([12]; 4° C. 1 × Extracted (control 9.1)): 8.9 Units/ml | Factor VIII Units/ml ([12]; 4° C. 2 × Extracted (control 9.1)): 9.3 Units/ml | Factor VIII Units/ml ([12]; Room Temp. Extraction (control 9.1)): 9.5 Units/ml | inactivation of vaccinia virus ([13]; 4°): not inactivated | inactivation of vaccinia virus ([13]; 20° and 40° C.): partially inactivated | Percent Inactivation ([13]; 4° C.): 0% | Percent Inactivation ([13]; 20° C.): 70% | Percent Inactivation ([13]; 40° C.): 70%

CCOCC [ether, diethyl ether]
inactivation of the virus [5]: inactivated
